What was measured:
KRas G12D = KRas G12D (Homo sapiens, UniProt P01116, G12D); assay: biochemical; settings: Binding to KRas (IC50 nM) G12D, TR-FRET displacement, KRas G12D
PSN1 cells = assay: Inhibition of KRas-mediated phosphorylation of ERK (Cisbio HTRF pERK), PSN1 cells; type: cell-based; settings: Homo sapiens, PSN1, 3 h, 3 hour compound incubation, Cisbio pERK HTRF
How it was run: (§1)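 Phospho-ERK signal measured by HTRF after cells had been plated at 6,000/well in RPMI supplemented with 10% FBS on day 1.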

KRas G12C = KRas G12C (Homo sapiens, UniProt P01116, G12C); type: binding; settings: for inhibition at 0.01 µM: single point, 10 nM compound, read-out: Binding to KRas (% inhibition at 10 nM) G12C
Chain of KRas G12C (P01116 1-169 isoform P01116-2 G12C): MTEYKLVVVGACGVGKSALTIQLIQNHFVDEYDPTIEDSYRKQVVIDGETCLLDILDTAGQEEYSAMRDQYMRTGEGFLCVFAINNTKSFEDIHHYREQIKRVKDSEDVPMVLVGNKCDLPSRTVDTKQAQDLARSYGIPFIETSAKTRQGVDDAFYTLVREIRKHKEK

H727 cells = assay: Inhibition of KRas-mediated phosphorylation of ERK (Cisbio HTRF pERK), H727 cells; type: cell-based; settings: Homo sapiens; for IC50: NCI-H727, 3 h, 3 hr compound incubation, Cisbio pERK HTRF
H358 cells = assay: Inhibition of KRas-mediated phosphorylation of ERK (Cisbio HTRF pERK), H358 cells; type: cell-based; settings: Homo sapiens; for IC50: NCI-H358, 3 h, 3 hr compound incubation, Cisbio pERK HTRF; for inhibition at 0.1 µM: NCI-H358, single point at 100 nM, 3 hrs compound incubation
ASPC1 cells = assay: Inhibition of KRas-mediated phosphorylation of ERK (Cisbio HTRF pERK), ASPC1 cells; type: cell-based; settings: Homo sapiens, AsPC-1 cells; for IC50: ASPC1, 3 h, 3 hr compound incubation, Cisbio pERK HTRF
HCT116 cells = assay: Inhibition of KRas-mediated phosphorylation of ERK (Cisbio HTRF pERK), HCT116 cells; type: cell-based; settings: Homo sapiens; for IC50: HCT-116, 3 h, 3 hr compound incubation, Cisbio pERK HTRF
KRas G12A = KRas G12A (Homo sapiens, UniProt P01116, G12A); type: binding; settings: for inhibition at 0.01 µM: single point, 10 nM compound, read-out: Binding to KRas (% inhibition at 10 nM) G12A
Chain of KRas G12A (P01116 1-169 isoform P01116-2 G12A): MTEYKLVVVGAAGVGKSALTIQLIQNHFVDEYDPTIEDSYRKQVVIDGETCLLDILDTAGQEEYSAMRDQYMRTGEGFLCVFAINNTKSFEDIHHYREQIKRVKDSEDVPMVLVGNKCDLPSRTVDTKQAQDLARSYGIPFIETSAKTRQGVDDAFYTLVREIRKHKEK

KRas G12R = KRas G12R (Homo sapiens, UniProt P01116, G12R); assay: biochemical; settings: Binding to KRas (IC50 nM) G12R, TR-FRET displacement, KRas G12R
Chain of KRas G12R (P01116 1-169 isoform P01116-2 G12R): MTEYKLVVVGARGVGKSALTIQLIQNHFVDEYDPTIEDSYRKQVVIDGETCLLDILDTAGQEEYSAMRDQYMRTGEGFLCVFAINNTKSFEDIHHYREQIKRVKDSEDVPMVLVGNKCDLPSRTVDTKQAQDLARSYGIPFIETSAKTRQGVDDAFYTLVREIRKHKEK

KRas G12V = KRas G12V (Homo sapiens, UniProt P01116, G12V); assay: biochemical; settings: Binding to KRas (IC50 nM) G12V, TR-FRET displacement, KRas G12V
Chain of KRas G12V (P01116 1-169 isoform P01116-2 G12V): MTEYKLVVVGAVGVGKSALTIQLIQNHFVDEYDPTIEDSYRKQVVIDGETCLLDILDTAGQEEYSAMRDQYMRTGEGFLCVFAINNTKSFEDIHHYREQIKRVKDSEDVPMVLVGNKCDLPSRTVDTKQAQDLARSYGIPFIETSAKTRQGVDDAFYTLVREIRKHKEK

MKN1 cells = assay: Inhibition of KRas-mediated phosphorylation of ERK (Cisbio HTRF pERK), MKN1 cells; type: cell-based; settings: Homo sapiens, MKN-1, 3 hour compound incubation, Cisbio pERK HTRF
How it was run: as §1

KRas G12S = KRas G12S (Homo sapiens, UniProt P01116, G12S); type: binding; settings: for inhibition at 0.01 µM: single point, 10 nM compound, read-out: Binding to KRas (% inhibition at 10 nM) G12S
Chain of KRas G12S (P01116 1-169 isoform P01116-2 G12S): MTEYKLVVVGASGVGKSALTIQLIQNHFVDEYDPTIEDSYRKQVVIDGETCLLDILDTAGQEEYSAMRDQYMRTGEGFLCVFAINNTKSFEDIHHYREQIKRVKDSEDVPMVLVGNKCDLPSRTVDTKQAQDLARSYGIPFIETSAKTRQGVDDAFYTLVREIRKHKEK

KRas G13D = KRas G13D (Homo sapiens, UniProt P01116, G13D); type: binding; settings: for inhibition at 0.01 µM: single point, 10 nM compound, read-out: Binding to KRas (% inhibition at 10 nM) G13D
Chain of KRas G13D (P01116 1-169 isoform P01116-2 G13D): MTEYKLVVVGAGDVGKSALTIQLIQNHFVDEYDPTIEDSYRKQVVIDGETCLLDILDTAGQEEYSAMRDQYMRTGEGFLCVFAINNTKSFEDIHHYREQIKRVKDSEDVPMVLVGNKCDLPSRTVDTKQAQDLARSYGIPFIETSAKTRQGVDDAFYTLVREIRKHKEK

H460 cells = assay: Inhibition of KRas-mediated phosphorylation of ERK (Cisbio HTRF pERK), H460 cells; type: cell-based; settings: Homo sapiens; for IC50: NCI-H460, 3 h, 3 hr compound incubation, Cisbio pERK HTRF
KRas Q61H = KRas Q61H (Homo sapiens, UniProt P01116, Q61H); assay: KRas binding assay (TR-FRET displacement), KRas Q61H; settings: for inhibition at 0.01 µM: single point, 10 nM compound
Chain of KRas Q61H (P01116 1-169 isoform P01116-2 Q61H): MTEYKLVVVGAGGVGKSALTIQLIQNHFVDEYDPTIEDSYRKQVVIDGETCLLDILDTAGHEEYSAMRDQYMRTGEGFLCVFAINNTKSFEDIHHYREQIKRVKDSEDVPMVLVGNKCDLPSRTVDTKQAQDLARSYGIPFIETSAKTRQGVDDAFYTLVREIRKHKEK

A549 cells = assay: Inhibition of KRas-mediated phosphorylation of ERK (Cisbio HTRF pERK), A549 cells; type: cell-based; settings: Homo sapiens; for IC50: A549, 3 h, 3 hr compound incubation, Cisbio pERK HTRF; for inhibition at 0.1 µM: single point at 100 nM, 3 hrs compound incubation
KRas WT = KRas WT (Homo sapiens, UniProt P01116); assay: KRas binding assay (TR-FRET displacement), KRas WT; settings: for inhibition at 0.01 µM: single point, 10 nM compound
Chain of KRas WT (P01116 1-169 isoform P01116-2): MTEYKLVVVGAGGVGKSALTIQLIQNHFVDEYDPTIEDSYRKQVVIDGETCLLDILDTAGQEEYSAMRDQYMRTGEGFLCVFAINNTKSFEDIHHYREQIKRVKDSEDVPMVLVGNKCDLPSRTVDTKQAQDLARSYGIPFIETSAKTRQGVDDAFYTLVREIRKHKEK

Chain of KRas G12D (P01116 1-169 isoform P01116-2 G12D): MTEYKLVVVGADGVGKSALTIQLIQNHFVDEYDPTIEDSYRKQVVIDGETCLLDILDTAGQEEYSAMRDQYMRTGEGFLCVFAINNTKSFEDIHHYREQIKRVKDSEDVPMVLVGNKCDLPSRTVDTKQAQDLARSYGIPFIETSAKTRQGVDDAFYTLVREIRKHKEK

Row | SMILES | IC50 (KRas G12D) | IC50 (PSN1 cells) | inhibition at 0.01 µM (KRas G12C) | IC50 (H727 cells) | IC50 (H358 cells) | IC50 (ASPC1 cells) | IC50 (HCT116 cells) | inhibition at 0.01 µM (KRas G12A) | IC50 (KRas G12R) | IC50 (KRas G12V) | IC50 (MKN1 cells) | inhibition at 0.01 µM (KRas G12S) | inhibition at 0.01 µM (KRas G13D) | IC50 (H460 cells) | inhibition at 0.01 µM (KRas Q61H) | IC50 (A549 cells) | inhibition at 0.01 µM (KRas WT) | inhibition at 0.1 µM (H358 cells) | inhibition at 0.1 µM (A549 cells) | other results
1 | CCc1c(F)ccc2cc(O)cc(N3CCc4c(nc(OC[C@@]56CCCN5C[C@H](F)C6)nc4N4CCCn5nc(C(=O)N6C[C@@H]7C[C@H](C6)[C@H](O)C7)cc5C4)C3)c12 [Example 268, (5-(7-(8-ethyl-7-fluoro-3-hydroxynaphthalen-1-yl)-2-(((2R,7aS)-2-fluorohexahydro-1H-pyrrolizin-7a-yl)methoxy)-5,6,7,8-tetrahydropyrido[3,4-d]pyrimidin-4-yl)-5,6,7,8-tetrahydro-4H-pyrazolo[1,5-a][1,4]diazepin-2-yl)((1R,5R,6R)-6-hydroxy-3-azabicyclo[3.2.1]octan-3-yl)methanone] | < 2 nM | > 10000 nM | 99% | 32 nM | 7 nM | 18 nM | 218 nM | 98% | < 2 nM | < 2 nM | 8.9 nM | 99% | 99% | 56 nM | 99% | 83 nM | 98% | 104% | 67% | inhibition at 0.1 µM (H727 cells; NCI-H727, single point at 100 nM, 3 hrs compound incubation): 49%; inhibition at 0.1 µM (ASPC1 cells; ASPC1, single point at 100 nM, 3 hrs compound incubation): 84%
2 | CCc1c(F)ccc2cc(O)cc(N3CCc4c(nc(OC[C@@]56CCCN5C[C@H](F)C6)nc4N4Cc5cn(C(=O)N(C)C)nc5CC(C)C4)C3)c12 (stereo partly drawn) [Example 422, 5-(7-(8-ethyl-7-fluoro-3-hydroxynaphthalen-1-yl)-2-(((2R,7aS)-2-fluorohexahydro-1H-pyrrolizin-7a-yl)methoxy)-5,6,7,8-tetrahydropyrido[3,4-d]pyrimidin-4-yl)-N,N,7-trimethyl-5,6,7,8-tetrahydropyrazolo[4,3-c]azepine-2(4H)-carboxamide] | 2 nM | > 10000 nM | 72% | 78 nM |  | 163 nM | 616 nM | 55% | 3 nM | < 2 nM | 189 nM | 60% | 55% | 169 nM | 62% | 147 nM | 58% |  |  | 

Continued, in another order:

Row | IC50 (KRas G12D) | IC50 (PSN1 cells) | inhibition at 0.01 µM (KRas G12C) | IC50 (H727 cells) | IC50 (H358 cells) | IC50 (ASPC1 cells) | IC50 (HCT116 cells) | inhibition at 0.01 µM (KRas G12A) | IC50 (KRas G12R) | IC50 (KRas G12V) | IC50 (MKN1 cells) | inhibition at 0.01 µM (KRas G12S) | inhibition at 0.01 µM (KRas G13D) | IC50 (H460 cells) | inhibition at 0.01 µM (KRas Q61H) | IC50 (A549 cells) | inhibition at 0.01 µM (KRas WT) | SMILES | inhibition at 0.1 µM (H358 cells) | inhibition at 0.1 µM (A549 cells) | other results
3 | < 2 nM | 2290 nM | 100% | 4 nM | 1 nM | 2 nM | 51 nM | 98% | < 2 nM | < 2 nM | 8.4 nM | 99% | 98% | 25 nM | 97% | 15 nM | 97% | CCc1c(F)ccc2cc(O)cc(N3CCc4c(nc(OC[C@@]56CCCN5C[C@H](F)C6)nc4N4CCCn5nc(C(=O)N(C)CCOC)cc5C4)C3)c12 [Example 382, 5-(7-(8-ethyl-7-fluoro-3-hydroxynaphthalen-1-yl)-2-(((2R,7aS)-2-fluorohexahydro-1H-pyrrolizin-7a-yl)methoxy)-5,6,7,8-tetrahydropyrido[3,4-d]pyrimidin-4-yl)-N-(2-methoxyethyl)-N-methyl-5,6,7,8-tetrahydro-4H-pyrazolo[1,5-a][1,4]diazepine-2-carboxamide] | 99% | 80% | 
4 | 4 nM | > 10000 nM | 78% | 124 nM |  | 55 nM |  | 54% | 3 nM | 4 nM | 76.1 nM | 70% | 61% | 112 nM | 51% |  | 53% | CCc1c(F)ccc2cc(O)cc(N3CCc4c(nc(OC[C@@]56CCCN5C[C@H](F)C6)nc4N4CCCn5nc(NC)c(C)c5C4)C3)c12 [Example 376, 5-ethyl-6-fluoro-4-(2-(((2R,7aS)-2-fluorohexahydro-1H-pyrrolizin-7a-yl)methoxy)-4-(3-methyl-2-(methylamino)-7,8-dihydro-4H-pyrazolo[1,5-a][1,4]diazepin-5(6H)-yl)-5,6-dihydropyrido[3,4-d]pyrimidin-7(8H)-yl)naphthalen-2-ol] | 70% | 34% | 
5 | < 2 nM | > 10000 nM |  | 194 nM |  | 106 nM |  |  | 6 nM | 2 nM | 480 nM |  |  |  |  | 285 nM |  | CCc1c(F)ccc2cccc(N3CCc4c(nc(OC[C@@]56CCCN5C[C@H](F)C6)nc4N4CCCn5nc(C(=O)N(C)C)cc5C4)C3)c12 [Example 481, 5-(7-(8-ethyl-7-fluoronaphthalen-1-yl)-2-(((2R,7aS)-2-fluorohexahydro-1H-pyrrolizin-7a-yl)methoxy)-5,6,7,8-tetrahydropyrido[3,4-d]pyrimidin-4-yl)-N,N-dimethyl-5,6,7,8-tetrahydro-4H-pyrazolo[1,5-a][1,4]diazepine-2-carboxamide] |  |  | IC50 (KRas G12C; TR-FRET displacement, read-out: Binding to KRas (IC50 nM) G12C): 4 nM; inhibition at 0.1 µM (HCT116 cells; HCT-116, single point at 100 nM, 3 hrs compound incubation): 8%; IC50 (KRas G12A; TR-FRET displacement, read-out: Binding to KRas (IC50 nM) G12A): 7 nM; IC50 (KRas G12S; TR-FRET displacement, read-out: Binding to KRas (IC50 nM) G12S): 5 nM; IC50 (KRas G13D; TR-FRET displacement, read-out: Binding to KRas (IC50 nM) G13D): 15 nM; inhibition at 0.1 µM (H460 cells; NCI-H460, single point at 100 nM, 3 hrs compound incubation): -1%; IC50 (KRas Q61H; TR-FRET displacement): 13 nM; IC50 (KRas WT; TR-FRET displacement): 11 nM
6 | 4 nM | > 10000 nM | 78% | 86 nM |  | 97 nM | 593 nM | 61% | 2 nM | 4 nM | 32.9 nM | 71% | 56% | 151 nM | 56% | 124 nM | 56% | CCc1c(F)ccc2cc(O)cc(N3CCc4c(nc(OC[C@@]56CCCN5C[C@H](F)C6)nc4N4CCCn5nc(NC(C)C)cc5C4)C3)c12 [Example 407, 5-ethyl-6-fluoro-4-(2-(((2R,7aS)-2-fluorohexahydro-1H-pyrrolizin-7a-yl)methoxy)-4-(2-(isopropylamino)-7,8-dihydro-4H-pyrazolo[1,5-a][1,4]diazepin-5(6H)-yl)-5,6-dihydropyrido[3,4-d]pyrimidin-7(8H)-yl)naphthalen-2-ol] |  |  | 
